Converted amounts (≈) assume the structure as drawn.
Key:
Assay type in all cases: cell-based
STR[…] 508 = test: In vitro antibacterial activity, MIC, BHI agar dilution; details: S. agalactiae CMX 508, unit assumed
Procedure, shortened: (§1)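 Twelve successive aqueous dilutions of compound in Brain Heart Infusion agar were inoculated with 1:100 culture dilutions (1:10 for slow growers such as Micrococcus, Streptococcus) by Steers replicator and incubated at 35-37° C for 20 to 24 hours. MIC was the lowest concentration giving no growth, slight haze or sparse colonies versus drug-free control.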

EN[…] ATCC 8043 = test: as above; details: E. faecium ATCC 8043, unit assumed
Procedure, shortened: as §1

M[…] ATCC 4698 = test: as above; details: M. luteus ATCC 4698, unit assumed
Procedure, shortened: as §1

M[…] ATCC 9341 = test: as above; details: M. luteus ATCC 9341, unit assumed
Procedure, shortened: as §1

[1] = tested on: PSEUDOMONAS AERUGINOSA BMH10; test: as above; details: P. aeruginosa BMH10, unit assumed
[2] = tested on: PSEUDOMONAS AERUGINOSA 5007; test: as above; details: P. aeruginosa 5007, unit assumed
[3] = tested on: PROVIDENCIA STUARTII CMX 640; details: P. stuartii CMX 640; BHI agar; unit assumed
ESCHERICHIA COLI H560 = test: In vitro antibacterial activity, MIC, BHI agar dilution; details: E. coli H560, unit assumed
[4] = tested on: STREPTOCOCCUS PYOGENES 930; test: as above; details: S. pyogenes 930, unit assumed
[5] = tested on: STREPTOCOCCUS BOVIS A-5169; test: as above; details: S. bovis A-5169, unit assumed
[6] = tested on: STREPTOCOCCUS PYOGENES PIU 2548; test: as above; details: S. pyogenes PIU 2548, unit assumed
[7] = tested on: KLEBSIELLA PNEUMONIAE ATCC 8045; test: as above; details: K. pneumoniae ATCC 8045, unit assumed
[8] = tested on: PSEUDOMONAS AERUGINOSA K799/WT; test: as above; details: P. aeruginosa K799/WT, unit assumed
[9] = tested on: STAPHYLOCOCCUS AUREUS A5177; test: as above; details: S. aureus A5177, unit assumed
PSEUDOMONAS CEPACIA 296I = test: as above; details: P. cepacia 296I, unit assumed
ESCHERICHIA COLI JUHL = details: E. coli JUHL; BHI agar; unit assumed
[10] = tested on: STAPHYLOCOCCUS AUREUS A-5278; test: In vitro antibacterial activity, MIC, BHI agar dilution; details: S. aureus A-5278, unit assumed
ESCHERICHIA COLI DC-2 = test: as above; details: E. coli DC-2, unit assumed
[11] = tested on: PSEUDOMONAS AERUGINOSA DPHD-5263; test: as above; details: P. aeruginosa DPHD-5263, unit assumed
CANDIDA ALBICANS CCH 442 = test: as above; details: C. albicans CCH 442, unit assumed
[12] = tested on: STAPHYLOCOCCUS AUREUS ATCC 6538P; test: as above; details: S. aureus ATCC 6538P, 35-37° C., 20 to 24 hours, unit assumed
[13] = tested on: MYCOBACTERIUM SMEGMATIS ATCC 114; test: as above; details: M. smegmatis ATCC 114, unit assumed
[14] = tested on: ENTEROBACTER AEROGENES ATCC 13048; test: as above; details: E. aerogenes ATCC 13048, unit assumed
[15] = tested on: STREPTOCOCCUS PYOGENES EES61; test: as above; details: S. pyogenes EES61, unit assumed
[16] = tested on: STAPHYLOCOCCUS AUREUS 1775; test: as above; details: S. aureus 1775, unit assumed
[17] = tested on: PSEUDOMONAS AERUGINOSA K799/61; test: as above; details: P. aeruginosa K799/61, unit assumed
ESCHERICHIA COLI SS = test: as above; details: E. coli SS, unit assumed
[18] = tested on: STAPHYLOCOCCUS AUREUS NCTC10649M; test: as above; details: S. aureus NCTC10649M, unit assumed
[19] = tested on: STAPHYLOCOCCUS AUREUS CMX 642A; test: as above; details: S. aureus CMX 642A, unit assumed
ESCHERICHIA COLI KNK 437 = details: E. coli KNK 437; BHI agar; unit assumed
[20] = tested on: STAPHYLOCOCCUS AUREUS CMX 553; test: In vitro antibacterial activity, MIC, BHI agar dilution; details: S. aureus CMX 553, unit assumed
[21] = tested on: STAPHYLOCOCCUS EPIDERMIDIS 3519; details: S. epidermidis 3519; BHI agar; unit assumed
[22] = tested on: PSEUDOMONAS AERUGINOSA DPHD-2862; test: In vitro antibacterial activity, MIC, BHI agar dilution; details: P. aeruginosa DPHD-2862, unit assumed

Row | SMILES | MIC (STR[…] 508) | MIC (EN[…] ATCC 8043) | MIC (M[…] ATCC 4698) | MIC (M[…] ATCC 9341) | MIC [1] | MIC [2] | MIC [3] | MIC (ESCHERICHIA COLI H560) | MIC [4] | MIC [5] | MIC [6] | MIC [7] | MIC [8] | MIC [9] | MIC (PSEUDOMONAS CEPACIA 296I) | MIC (ESCHERICHIA COLI JUHL) | MIC [10] | MIC (ESCHERICHIA COLI DC-2) | MIC [11] | MIC (CANDIDA ALBICANS CCH 442) | also measured
1 | CC[C@H]1OC(=O)[C@H](C)C(=O)[C@H](C)[C@@H](O[C@@H]2O[C@H](C)C[C@H](N(C)C)[C@H]2O)[C@](C)(OC)C[C@@H](C)C2=NC3CN(CCc4ccc(N)cc4)CC3N3C(=O)O[C@@]1(C)[C@H]3[C@H]2C (stereo partly drawn) [Example 121] | 0.02 µg/mL (≈ 0.0251 µM) | 0.05 µg/mL (≈ 0.0627 µM) | 0.2 µg/mL (≈ 0.251 µM) | 0.05 µg/mL (≈ 0.0627 µM) | 100 µg/mL (≈ 125 µM) | > 100 µg/mL | > 100 µg/mL | 25 µg/mL (≈ 31.3 µM) | > 100 µg/mL | 0.01 µg/mL (≈ 0.0125 µM) | 0.78 µg/mL (≈ 0.977 µM) | 100 µg/mL (≈ 125 µM) | > 100 µg/mL | 0.78 µg/mL (≈ 0.977 µM) | 100 µg/mL (≈ 125 µM) | 50 µg/mL (≈ 62.7 µM) | > 100 µg/mL | 50 µg/mL (≈ 62.7 µM) | > 100 µg/mL | > 100 µg/mL | MIC [12]: 0.78 µg/mL (≈ 0.977 µM); MIC [13]: 6.2 µg/mL (≈ 7.77 µM); MIC [14]: 100 µg/mL (≈ 125 µM); MIC [15]: 0.02 µg/mL (≈ 0.0251 µM); MIC [16]: > 100 µg/mL; MIC [17]: 0.39 µg/mL (≈ 0.489 µM); MIC (ESCHERICHIA COLI SS): 0.2 µg/mL (≈ 0.251 µM); MIC [18]: 0.78 µg/mL (≈ 0.977 µM); MIC [19]: 0.78 µg/mL (≈ 0.977 µM); MIC (ESCHERICHIA COLI KNK 437): 50 µg/mL (≈ 62.7 µM); MIC [20]: 0.78 µg/mL (≈ 0.977 µM); MIC [21]: 0.78 µg/mL (≈ 0.977 µM); MIC [22]: > 100 µg/mL
2 | CC[C@H]1OC(=O)[C@H](C)C(=O)[C@H](C)[C@@H](O[C@@H]2O[C@H](C)C[C@H](N(C)C)[C@H]2O)[C@](C)(OC)C[C@@H](C)C2=NC3CN(CCc4ccc(NC(C)=O)cc4)CC3N3C(=O)O[C@@]1(C)[C@H]3[C@H]2C (stereo partly drawn) [Example 122] | 0.1 µg/mL (≈ 0.119 µM) | 0.78 µg/mL (≈ 0.928 µM) | 1.56 µg/mL (≈ 1.86 µM) | 0.05 µg/mL (≈ 0.0595 µM) | > 100 µg/mL | > 100 µg/mL | > 100 µg/mL | 50 µg/mL (≈ 59.5 µM) | 100 µg/mL (≈ 119 µM) | 0.02 µg/mL (≈ 0.0238 µM) | 6.2 µg/mL (≈ 7.38 µM) | > 100 µg/mL | > 100 µg/mL | 0.39 µg/mL (≈ 0.464 µM) | > 100 µg/mL | 100 µg/mL (≈ 119 µM) | > 100 µg/mL | 100 µg/mL (≈ 119 µM) | > 100 µg/mL | > 100 µg/mL | MIC [12]: 0.39 µg/mL (≈ 0.464 µM); MIC [13]: 25 µg/mL (≈ 29.8 µM); MIC [14]: 100 µg/mL (≈ 119 µM); MIC [15]: 0.02 µg/mL (≈ 0.0238 µM); MIC [16]: > 100 µg/mL; MIC [17]: 0.78 µg/mL (≈ 0.928 µM); MIC (ESCHERICHIA COLI SS): 0.78 µg/mL (≈ 0.928 µM); MIC [18]: 0.78 µg/mL (≈ 0.928 µM); MIC [19]: 0.78 µg/mL (≈ 0.928 µM); MIC (ESCHERICHIA COLI KNK 437): 50 µg/mL (≈ 59.5 µM); MIC [20]: 0.78 µg/mL (≈ 0.928 µM); MIC [21]: 0.78 µg/mL (≈ 0.928 µM); MIC [22]: > 100 µg/mL
3 | CC[C@H]1OC(=O)[C@H](C)C(=O)[C@H](C)[C@@H](O[C@@H]2O[C@H](C)C[C@H](N(C)C)[C@H]2O)[C@](C)(OC)C[C@@H](C)C2=NC3CN(C=O)CC3N3C(=O)O[C@@]1(C)[C@H]3[C@H]2C (stereo partly drawn) [Example 124] | 0.1 µg/mL (≈ 0.141 µM) | 0.2 µg/mL (≈ 0.283 µM) | 0.39 µg/mL (≈ 0.552 µM) | 0.1 µg/mL (≈ 0.141 µM) | > 100 µg/mL | > 100 µg/mL | > 100 µg/mL | 50 µg/mL (≈ 70.7 µM) | > 100 µg/mL | 0.05 µg/mL (≈ 0.0707 µM) | 3.1 µg/mL (≈ 4.39 µM) | > 100 µg/mL | 100 µg/mL (≈ 141 µM) | 1.56 µg/mL (≈ 2.21 µM) | > 100 µg/mL | 100 µg/mL (≈ 141 µM) | > 100 µg/mL | 100 µg/mL (≈ 141 µM) | > 100 µg/mL | > 100 µg/mL | MIC [12]: 0.78 µg/mL (≈ 1.1 µM); MIC [13]: 25 µg/mL (≈ 35.4 µM); MIC [14]: > 100 µg/mL; MIC [15]: 0.02 µg/mL (≈ 0.0283 µM); MIC [16]: > 100 µg/mL; MIC [17]: 0.78 µg/mL (≈ 1.1 µM); MIC (ESCHERICHIA COLI SS): 0.78 µg/mL (≈ 1.1 µM); MIC [18]: 0.78 µg/mL (≈ 1.1 µM); MIC [19]: 0.78 µg/mL (≈ 1.1 µM); MIC (ESCHERICHIA COLI KNK 437): 100 µg/mL (≈ 141 µM); MIC [20]: 0.78 µg/mL (≈ 1.1 µM); MIC [21]: 3.1 µg/mL (≈ 4.39 µM); MIC [22]: > 100 µg/mL

From patent US6274715A, “Tricyclic erythromycin derivatives” (priority 1997, dated 2001)
